# Biological target: T1, h NaV1.5 (Homo sapiens, UniProt Q14524, R1027Q)
# T1 construct: expressed in transfected cells; host or cells: Xenopus laevis oocytes injected with cRNA
# Test: TEVC recordings in X. laevis oocytes, NaV1.5
# Assay type: cell-based
# Conditions: for Ionic current block INa: from inhibition curves, used for simulation
# Procedure: To obtain X. laevis oocytes, the frogs were anesthetized with 2 g/L of tricaine methanesulfonate, and the ovarian lobes were mechanically separated with forceps. The oocytes were incubated for 120 min in an OR2 solution containing in mM: NaCl 82.5, KCl 2, MgCl2 1, HEPES 5 (pH 7.5) supplemented with 2 mg/ml of collagenase II (Sigma) to remove residual connective tissue and obtain individual oocytes. Subsequently, the oocytes were washed with a ND96 solution containing in mM: NaCl 96, KCl 2, CaCl2 1.8, MgCl2 1, HEPES 5 (pH 7.5, adjusted with NaOH) and stored at 18 °C in ND96 solution supplemented with 1 ml of gentamicin (50 mg/L), sodium pyruvate (275 mg/L) and (90 mg/L) theophylline (inhibits further oocyte maturation) before and after RNA injection.
# In order to overexpress the channel in the oocyte, each of the channels to be measured was subcloned (complementary DNA (cDNA); human TASK-1 (KCNK3, NM_002246), h KV1.5 (KCNA5, NM_002234), h NaV1.5 (hH1, M77235), TASK-4/TALK-2 (KCNK17, NM_AF358910), TREK-1 (KCNK2, AF004711) and Kir2.1 (KCNJ2, NM_017296) into pSGEM, pBF1 or pSP64 expression vector, and the cDNA was linearized with NheI or MluI. Complementary RNA (cRNA) was synthesized with the mMESSAGE mMACHINE-Kit (Ambion). The quality of the cRNA was tested on an agarose gel by electrophoresis. cRNA was quantified using a UV-Vis spectrophotometer (NanoDrop 2000). Subsequently, the channel was transfected in the oocytes in stages V and VI, for which […] (TASK-1, KV1.5 or TREK-1), 10 ng (NaV1.5 or TASK-4) o 2.5 ng (Kir2.1) per oocyte of cRNA was injected with a NanojectII microinjector (Drummond Scientific). The oocytes were stored in 24-well plates for 24 to 48 h at 18 °C. After this time, the overexpression of each channel was monitored through electrophysiology.
# Two-electrode voltage clamp measurements were performed 24 or 48 h after cRNA injection at room temperature (20–22 °C) in ND96 recording solution with a TurboTEC-10CD (npi) amplifier and a Digidata 1550B (for TASK-1 and KV1.5) and 1440A (for NaV1.5) A/D converter from Axon Instruments. Micropipettes were fabricated from GB 150 TF-8P borosilicate glass capillaries (Science Products) elongated in a DMZ-Universal Puller (Zeitz, Germany). […] ND96 was used as bath solution. Data acquisition was performed using Clampex 10 software (Axon Instruments), and data were analyzed with ClampFit 10 (Axon Instruments) and Origin 7 (Origin Lab Corporation).
# For compound inhibition testing, from a holding potential of −80 mV a first test pulse to 0 mV of 1 s duration was followed by a repolarization step at −80 mV for 1 s, directly followed by another 1 s test pulse at +40 mV. The sweep time interval was 10 s for KV1.5 and TASK-1 channels. For the NaV1.5 channel, the block was analyzed with voltage steps from a holding potential of −80 mV. A first depolarizing pulse to −30 mV of 50 ms duration was applied, followed by a 5 ms step to −80 mV. The sweep time interval was 5 s. The compounds were applied at different concentrations to determine the half-maximal inhibitory concentration (IC50), using a fit to the Hill equation.
# To test for a putative voltage-dependence of the block by the compound 6f in KV1.5, a 1.5 s voltage step protocol from −80 to +80 mV with +20 mV increments was used. The holding potential was −80 mV and the sweep time interval was 10 s. Currents were analyzed at the end of the voltage pulse. For TASK-1, voltage-dependence of block was probed using a high-potassium solution (KD96) containing in mM: KCl 96, NaCl 2, CaCl2 1.8, MgCl2 1, HEPES 5, (pH 7.5, adjusted with KOH). From a holding potential of 0 mV, voltage was stepped from −80 mV to +80 mV for 1.5 s in +20 mV steps every 10 s. To determine the current-voltage relationship of the NaV1.5 channel, the voltage was stepped for 50 ms from a holding potential of −80 mV to −70 mV to +80 mV in +10 mV increments every 5 s. The peak currents were subsequently plotted against the respective applied voltages.
# T1 sequence (Q14524 whole entry R1027Q): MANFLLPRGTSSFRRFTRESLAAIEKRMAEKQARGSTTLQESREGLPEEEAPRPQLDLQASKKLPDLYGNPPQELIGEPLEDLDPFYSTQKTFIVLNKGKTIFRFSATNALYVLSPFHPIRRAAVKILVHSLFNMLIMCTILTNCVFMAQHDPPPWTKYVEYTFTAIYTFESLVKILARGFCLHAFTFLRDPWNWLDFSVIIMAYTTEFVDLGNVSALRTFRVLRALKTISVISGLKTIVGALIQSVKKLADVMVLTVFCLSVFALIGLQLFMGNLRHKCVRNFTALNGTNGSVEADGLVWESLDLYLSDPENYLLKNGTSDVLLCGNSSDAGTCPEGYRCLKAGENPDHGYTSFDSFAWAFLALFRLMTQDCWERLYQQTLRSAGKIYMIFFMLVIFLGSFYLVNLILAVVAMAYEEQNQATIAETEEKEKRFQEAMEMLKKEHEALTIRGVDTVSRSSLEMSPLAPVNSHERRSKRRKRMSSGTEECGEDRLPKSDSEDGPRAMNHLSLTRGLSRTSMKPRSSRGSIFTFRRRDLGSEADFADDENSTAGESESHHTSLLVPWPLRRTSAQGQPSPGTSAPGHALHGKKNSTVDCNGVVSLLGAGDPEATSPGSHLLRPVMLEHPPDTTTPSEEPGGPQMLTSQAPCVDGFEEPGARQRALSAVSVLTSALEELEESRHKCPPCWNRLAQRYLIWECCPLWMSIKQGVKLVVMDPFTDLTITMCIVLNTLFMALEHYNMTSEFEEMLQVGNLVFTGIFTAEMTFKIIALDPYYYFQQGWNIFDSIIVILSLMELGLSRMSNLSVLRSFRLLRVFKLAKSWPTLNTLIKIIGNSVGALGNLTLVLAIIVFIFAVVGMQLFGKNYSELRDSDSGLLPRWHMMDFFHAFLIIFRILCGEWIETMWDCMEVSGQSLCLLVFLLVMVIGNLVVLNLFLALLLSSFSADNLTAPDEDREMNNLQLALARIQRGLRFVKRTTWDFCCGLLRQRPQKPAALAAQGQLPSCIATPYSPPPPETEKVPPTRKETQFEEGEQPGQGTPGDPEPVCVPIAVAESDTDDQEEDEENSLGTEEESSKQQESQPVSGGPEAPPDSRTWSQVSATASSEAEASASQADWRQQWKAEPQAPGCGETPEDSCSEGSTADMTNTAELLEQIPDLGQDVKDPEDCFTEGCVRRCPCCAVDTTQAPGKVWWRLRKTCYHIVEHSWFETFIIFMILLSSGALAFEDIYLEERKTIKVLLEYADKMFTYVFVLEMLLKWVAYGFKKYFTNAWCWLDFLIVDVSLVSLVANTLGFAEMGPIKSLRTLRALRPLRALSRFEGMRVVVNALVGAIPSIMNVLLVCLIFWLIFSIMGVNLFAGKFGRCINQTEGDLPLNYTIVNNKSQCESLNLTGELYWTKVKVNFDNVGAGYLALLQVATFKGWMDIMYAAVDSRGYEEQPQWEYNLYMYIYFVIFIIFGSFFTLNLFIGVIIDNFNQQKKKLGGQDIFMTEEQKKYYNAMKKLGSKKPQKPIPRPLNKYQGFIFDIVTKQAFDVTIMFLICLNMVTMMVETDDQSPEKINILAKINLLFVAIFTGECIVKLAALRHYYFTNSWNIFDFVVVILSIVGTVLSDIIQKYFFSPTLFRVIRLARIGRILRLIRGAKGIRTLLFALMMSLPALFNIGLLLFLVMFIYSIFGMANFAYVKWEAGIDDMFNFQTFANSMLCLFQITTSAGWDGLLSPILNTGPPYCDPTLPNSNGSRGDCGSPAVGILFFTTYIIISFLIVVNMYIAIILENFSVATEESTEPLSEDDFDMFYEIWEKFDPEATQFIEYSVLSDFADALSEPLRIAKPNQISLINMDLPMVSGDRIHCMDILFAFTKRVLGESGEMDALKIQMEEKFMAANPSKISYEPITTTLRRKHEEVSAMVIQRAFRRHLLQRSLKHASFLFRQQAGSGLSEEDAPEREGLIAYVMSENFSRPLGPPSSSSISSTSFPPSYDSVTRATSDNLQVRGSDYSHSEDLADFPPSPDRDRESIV
smiles,measurement,setting,value
"CCCCN(CCCC)CC(=O)Nc1ccc(OC)cc1OC [Compound 6f, 2-(dibutylamine)-N-(2,4-dimethoxiphenyl)acetamide]",Ionic current block INa,1 μM,16%
same,Ionic current block INa,10 μM,30%
same,Ionic current block INa,100 μM,65%
same,inhibition at 100 µM,"100 μM, −30 mV, oocytes, mean ± SD",62.4 ± 20.6%
same,Voltage-dependence of block of NaV1.5,"oocytes, 100 μM",small but significant variations
same,Frequency-dependent inhibition of NaV1.5,"oocytes, 100 μM, 1, 2 and 3 Hz",did not observe a significant frequency-dependent inhibition
